ChEMBL document CHEMBL1133277, “Effect of C2/C3-endo unsaturation on the cytotoxicity and DNA-binding reactivity of pyrrolo[2,1-c][1,4]benzodiazepines” (2000)

Columns and labels:
A2780 [1] = assay: In vitro cytotoxicity of compound was determined against A2780 cell lines at 37 degree C after 96 hr; type: functional, Homo sapiens
Nucleic Acid [2] = assay: Change in temperature (thermal denaturation) was determined from calf thymus DNA at 37 degree Celsius for 0 hours; type: functional; conditions: Bos taurus
CH1 [3] = assay: In vitro cytotoxicity of compound was determined against CH1 cell lines at 37 degree C after 96 hr; type: functional, Homo sapiens
Nucleic Acid [4] = assay: Change in temperature (thermal denaturation) was determined from calf thymus DNA at 37 degree Celsius for 18 hours; type: functional; conditions: Bos taurus
CH1 [5] = assay: In vitro cytotoxicity of compound was determined against CH1 (cisplatin resistant) cell lines at 37 degree C after 96 hr; type: functional, Homo sapiens
SK-OV-3 = assay: In vitro cytotoxicity of compound was determined against SKOV-3 cell lines at 37 degree C after 96 hr; type: functional, Homo sapiens
[6] = Resistance factor of compound was determined from cisplatin resistant A2780 cell lines to that of A2780 cell lines; type: functional
Nucleic Acid [7] = assay: Change in temperature (thermal denaturation) was determined from calf thymus DNA at 37 degree Celsius for 4 hours; type: functional; conditions: Bos taurus
[8] = Resistance factor of compound was determined from cisplatin resistant CH1 cell lines to that of CH1 cell lines; type: functional
A2780 [9] = assay: In vitro cytotoxicity of compound was determined against A2780 cell lines (cisplatin resistant) at 37 degree C after 96 hr; type: functional, Homo sapiens
Nucleic Acid [10] = assay: Change in temperature (thermal denaturation) was determined from calf thymus DNA at 37 degree Celsius for 36 hours; type: functional; conditions: Bos taurus

| SMILES | Cytotoxicity (A2780 [1]) [µM] | ΔTm (Nucleic Acid [2]) [°C] | Cytotoxicity (CH1 [3]) [µM] | ΔTm (Nucleic Acid [4]) [°C] | Cytotoxicity (CH1 [5]) [µM] | Cytotoxicity (SK-OV-3) [µM] | Resistance factor [6] | ΔTm (Nucleic Acid [7]) [°C] | Resistance factor [8] | Cytotoxicity (A2780 [9]) [µM] | ΔTm (Nucleic Acid [10]) [°C] |
| --- | --- | --- | --- | --- | --- | --- | --- | --- | --- | --- | --- |
| Cc1ccc2c(c1O)N=C[C@@H]1CC(/C=C/C(N)=O)=CN1C2=O | 0.155 | 9.4 | 0.062 | 13 | 0.05 | 0.16 | 1.03 | 11.2 | 0.81 | 0.16 |  |
| COc1cc2c(cc1OCc1ccccc1)N=C[C@@H]1CC(CCOC(C)=O)=CN1C2=O | 0.1 | 1.57 | 0.105 | 2.53 | 0.16 | 0.46 | 2.7 | 2.11 | 1.5 | 0.27 |  |
| COC(=O)CC1=CN2C(=O)c3cc(OC)c(OC)cc3N=C[C@@H]2C1 | 0.36 | 3.41 | 0.115 |  | 0.15 | 0.45 | 1.3 | 4.63 | 1.3 | 0.46 | 6.65 |
| COc1cc2c(cc1OCc1ccccc1)N=C[C@@H]1CC(CC#N)=CN1C2=O | 0.155 | 1.84 | 0.105 | 4.31 | 0.27 | 0.52 | 2.8 | 2.31 | 2.6 | 0.43 |  |
| COc1cc2c(cc1OCc1ccccc1)N=C[C@@H]1CC(CCO)=CN1C2=O | 0.07 | 3.98 | 0.09 | 5.6 | 0.037 | 0.105 | 1.5 | 4.61 | 0.4 | 0.105 |  |
| COc1cc2c(cc1OCc1ccccc1)N=C[C@@H]1CCCN1C2=O | 0.17 | 0.2 | 0.145 | 0.4 | 0.145 | 0.46 | 2.8 | 0.4 | 1 | 0.48 |  |
| COC(=O)CC1=CN2C(=O)c3cc(OC)c(OCc4ccccc4)cc3N=C[C@@H]2C1 | 0.0145 | 3.08 | 0.016 |  | 0.04 | 0.12 | 8.3 | 3.96 | 2.5 | 0.12 | 4.97 |
